Test results taken from PMC10202811 (Nature Medicine, 2023).
Several values for one entry are separate records, joined by “and”; a condition that tells them apart may be missing. Equal values may be shown once. Entries after “also recorded” stand apart in the source; their conditions may differ.

Assays:
[1] = Real-time neurobehavioral monitoring of CNS effects; type: in vivo, human
Description: The Adaptive Behavior Assessment System 3rd edition (ABAS-3; Harrison & Oakland, 2015) parent-report and self-report forms were used for the assessment of adaptive skills for individuals across all ages. Internal consistency has been reported to be 0.96 or greater for the composite adaptive behavior scale and between 0.86 and 0.99 for the subscales. Construct, convergent and discriminant validity have also been established for this measure.
The Behavior Assessment System for Children 3rd edition (BASC-3; Reynolds & Kamphaus, 2015) is a questionnaire assessing behavioral, emotional and adaptive functioning across settings. For purposes of this study, the Parent Rating Scales (PRS) were administered for patients ages 2–5 years (Preschool form, PRS-P), 6–11 years (Child form, PRS-C) and 12–17 years (Adolescent form, PRS-A). The Self-Report of Personality (SRP) College Form was administered for adult patients ages 18–25 years. The reliability of the BASC-3 is strong, with internal consistency averaging above 0.80 for all the age-specific versions of this questionnaire, and average test–retest reliability is 0.86.
The Behavior Rating Inventory of Executive Function (BRIEF; Gioia et al. 2000) is a questionnaire designed to assess behavioral manifestations of executive functioning and includes multiple versions. Parents of participants aged 2–5 years completed the 63-item preschool version (BRIEF-P). Parents of participants aged 6–17 years completed the BRIEF parent form, which consists of 86 individual items from which eight clinical scales, two indices and one composite score are derived. Patients who were ≥18 years of age completed a 75-item self-report adult version (BRIEF-A). Scores are standardized by age and gender, and high internal consistency (0.73–0.98) and test–retest reliability (0.76–0.90) were observed. Construct, content, convergent and discriminant validity have been established.
CogState Research Battery (version 7; Sands et al. 2017; Heitzer et al. 2018) is a flexible battery of computer-based tests developed to monitor domains of cognition typically affected by cancer treatment, such as attention, memory, executive function and processing speed. Three different versions were used, one for children 3–5 years of age, one for children 6–9 years of age and one for patients 10 years of age and older. Age-standardized z-scores were derived based on the CogState normative dataset finalized in September 2014 for adults and in February 2016 for pediatrics, with construct validity, criterion validity, cultural equivalence and limited practice effects established.
Only measures with established language translations were used. If measures were not available in a patient’s primary language, neurobehavioral toxicity assessment was based on the treating physician’s clinical determination using CTCAE version 4.0 grading criteria. All measures were individually administered by trained, qualified site personnel. Standardized scores were obtained for each instrument administered by comparing raw scores to normative samples provided by the test publishers. All evaluation results were reviewed, analyzed and interpreted centrally in real time by a pediatric neuropsychologist. Determination of clinically meaningful change in functioning (that is, significant decline) relative to baseline or previous screening exam was made at each retest interval. This was calculated using reliable change indices (RCIs) for individual tests or scales, which account for standard errors of measurement, to determine whether a statistically significant change in scores occurred between two timepoints. Meaningful change in performance was considered to occur when clinically significant decline (using 90% CI) was present in 50% of select administered measures. […]

[2] = test system: ALK-driven refractory or relapsed neuroblastoma; test: Progression-free survival and overall survival (Kaplan-Meier) by cohort; type: in vivo, human; conditions: individual patients (PID); for PFS status: source data of Figure 3; for PFS time, years since on study: time is censored where PFS status is No event; for OS time, years since on study: time is censored where vital status is Alive
Description: Supplement 41591_2023_2297_MOESM8_ESM.xlsx, sheet "Figure 3" | column: PFS status; PFS time, years since on study; Vital status; OS time, years since on study

[3] = A1 (< 18 yrs), DL 5 (115 mg/m^2)
[4] = B2 (< 18yrs), DL 5 (115 mg/m^2)
[5] = patient with CNS DLT, A2 (≥ 18 yrs), 100 mg
[6] = patient with CNS DLT, B2 (< 18yrs), DL 5 (115 mg/m^2)
[7] = patients with CNS DLT, A2 (≥ 18 yrs), 150 mg

C[C@H]1Oc2cc(cnc2N)-c2c(nn(C)c2C#N)CN(C)C(=O)c2ccc(F)cc21 [Lorlatinib, (10R)-7-amino-12-fluoro-2,10,16-trimethyl-15-oxo-10,15,16,17-tetrahydro-2H-8,4-(metheno)pyrazolo[4,3-h][2,5,11]-benzoxadiazacyclotetradecine-3-carbonitrile]
DLT Corresponding Neuropsych Symptoms, Cognitive [1, 3]: Stable
DLT Corresponding Neuropsych Symptoms, Psychosocial [1, 3]: Adaptive Skills Depression
DLT Corresponding Neuropsych Symptoms, Cognitive ([1]; A2 (≥ 18 yrs), 100 mg): Speed/Efficiency Working Memory Immediate Recall
DLT Corresponding Neuropsych Symptoms, Psychosocial ([1]; A2 (≥ 18 yrs), 100 mg): Adaptive Skills Attention Working Memory
DLT Corresponding Neuropsych Symptoms, Cognitive ([1]; A2 (≥ 18 yrs), 150 mg): Stable
DLT Corresponding Neuropsych Symptoms, Psychosocial ([1]; A2 (≥ 18 yrs), 150 mg): Anxiety Depression Emotional Lability Atypicality^c; also recorded: Adaptive Skills Depression Emotional Lability Working Memory
DLT Corresponding Neuropsych Symptoms, Cognitive [1, 4]: Speed/ Efficiency Working Memory
DLT Corresponding Neuropsych Symptoms, Psychosocial [1, 4]: Adaptive Skills Anxiety
Pre-Cycle Neuropsych Symptoms, Psychosocial ([1]; patient with CNS DLT, A1 (< 18 yrs), DL 5 (115 mg/m^2)): Atypicality Adaptive Skills
Pre-Cycle Neuropsych Symptoms, Cognitive ([1]; patient with CNS DLT, A1 (< 18 yrs), DL 5 (115 mg/m^2), decline from baseline): Stable
Pre-Cycle Neuropsych Symptoms, Cognitive [1, 5]: Speed/ Efficiency Working Memory
Pre-Cycle Neuropsych Symptoms, Psychosocial [1, 5]: Adaptive Skills Attention
Pre-Cycle Neuropsych Symptoms, Cognitive [1, 6]: Speed/ Efficiency
Pre-Cycle Neuropsych Symptoms, Psychosocial [1, 6]: Atypicality Anxiety
Pre-Cycle Neuropsych Symptoms, Cognitive [1, 7]: Stable; also recorded: Visual Memory
Pre-Cycle Neuropsych Symptoms, Psychosocial [1, 7]: Adaptive Skills Anxiety Emotional Lability Working Memory Atypicality; also recorded: Depression Emotional Lability Working Memory
Vital status ([2]; cohort A1): Alive; also recorded: Deceased
PFS status ([2]; cohort A1): No event; also recorded: Relapsed/Deceased
PFS time, years since on study ([2]; cohort A1): 3.67 years and 0.13 years and 2.37 years and 0.10 years and 1.50 years and 0.08 years and 3.43 years and 0.31 years and 0.0657 years and 1.07 years and 1.17 years and 0.15 years and 0.30 years and 4.15 years and 0.28 years and 0.11 years and 0.16 years
OS time, years since on study ([2]; cohort A1): 3.67 years and 0.74 years and 3.43 years and 0.10 years and 1.50 years and 0.40 years and 0.36 years and 0.32 years and 0.39 years and 0.16 years and 2.28 years and 1.68 years and 0.20 years and 1.46 years and 1.11 years and 0.48 years and 0.56 years and 0.37 years and 4.15 years and 0.65 years and 0.63 years
Vital status ([2]; cohort A2): Alive; also recorded: Deceased
PFS status ([2]; cohort A2): No event; also recorded: Relapsed/Deceased
PFS time, years since on study ([2]; cohort A2): 4.39 years and 0.15 years and 0.82 years and 1.03 years and 0.80 years and 2.07 years and 0.89 years and 0.77 years and 0.32 years and 2.48 years and 2.24 years and 1.46 years and 1.34 years and 0.93 years and 0.73 years
OS time, years since on study ([2]; cohort A2): 4.39 years and 0.51 years and 1.86 years and 1.14 years and 1.78 years and 3.47 years and 0.89 years and 1.27 years and 1.10 years and 2.48 years and 2.24 years and 1.46 years and 1.34 years and 0.93 years and 0.73 years
Vital status ([2]; cohort B2): Deceased; also recorded: Alive
PFS status ([2]; cohort B2): Relapsed/Deceased; also recorded: No event
PFS time, years since on study ([2]; cohort B2): 0.50 years and 0.66 years and 0.13 years and 0.45 years and 1.28 years and 0.06 years and 0.44 years and 0.70 years and 0.16 years
OS time, years since on study ([2]; cohort B2): 1.16 years and 0.66 years and 0.41 years and 0.79 years and 1.28 years and 0.22 years and 0.44 years and 0.70 years and 0.54 years
